These results are taken from patent publication US9757357B2, “Photodynamic therapy or diagnostic agent, using infrared-spectrum light” (Tokyo Institute of Technology, priority 2011, dated 2017).

Each structure is given as a SMILES string.

The subject of this assay is MKN45 cells. Nature of the assay: ALA-PDT using LNP under 980-nm NIR irradiation (MTT viability). Format: cell-based, Human. As to the method: MKN45 cells were irradiated with NIR in the presence of ALA and LNP to confirm whether cell death occurred.
A medium in a 10-cm dish containing MKN45 cells cultured in a liquid medium (RPMI-1640, FBS(+), and PSN(+)) was aspirated, and the cells were washed with 3 ml of a PBS solution. 1 ml of trypsin was added thereto, and the mixture was incubated (37° C. and 5% CO2) for 5 minutes. The enzymatic reaction of trypsin was terminated by the addition of 5 ml of a fresh medium. A total of 6 ml of the reaction mixture was centrifuged at 1100 rpm for 5 minutes. In this procedure, 10 μl of the sample was mixed with a dye trypan blue, which dyes dead cells. The number of cells was counted using a hemacytometer. After the centrifugation, the supernatant was aspirated, and 2 ml of a fresh medium was added to the cells. The resulting cells were inoculated at a concentration of 100 μl/well (2×10^4 cells/well) to a 96-well plate for ALA concentrations 1000, 100, 10, and 0 μM and a blank. LNP(+) and LNP(−) series were prepared per sample, and these samples were divided into two different plates for NIR(+) and NIR(−). After overnight culture, the medium in each well was discarded. 100 μl of a fresh medium (containing 2.5 mg/ml LNP for the LNP(+) series) and 0.2 M ALA adjusted to the concentrations mentioned above were added to each well of the plates. After incubation for 4 hours, each plate was irradiated from 50 mm above with 980-nm NIR (400 mA) for 3 min/well. After overnight culture, the medium in each well was discarded, and the cells were washed with 100 μl of a PBS solution. 100 μl of a fresh medium and 10 μl of an MTT methanol solution diluted 10-fold with PBS were added to each well. After incubation for 4 hours, 10% SDS was added thereto at a concentration of 100 μl/well, and the mixture was incubated overnight. The absorbance was measured at 570 nm to 660 nm.
ALA-PDT was performed using commercially available LNP in the same way as in Example 4 except that the concentration of MKN45 cells was changed to 2×10^4 cells/well; the ALA concentrations were changed to 2000, 1000, 100, 10, and 0 μM; the culture time after addition of ALA was changed from 4 hours to 24 hours; and the NIR irradiation time was changed to 90 min/well.
ALA-PDT was performed using synthetic LNP in the same way as in Example 5 except that: the concentration of the synthetic LNP prepared in Example 6 was set to 2 mg/mL; and the ALA concentrations were changed to 2000, 1500, 1000, 100, and 0 μM.

With `NCC(=O)CCC(=O)O` [ALA, 5-aminolevulinic acid], the cell viability result runs as follows: (Example 4, FIG. 4, LNP(−),NIR(+), ALA 0-1000 μM, 4 h, 980-nm NIR 3 min/well) “slight reduction in viability was confirmed”; (Example 4, FIG. 4, no NIR irradiation, ALA 0-1000 μM, 4 h, LNP(+) series 2.5 mg/ml and LNP(−) series) “no change was observed in cell viability”; (Example 5, FIG. 5, LNP(−),NIR(+), ALA 0-2000 μM, 24 h, NIR 90 min/well) “no change was confirmed in cell viability”; (Example 5, FIG. 5, no NIR irradiation, ALA 0-2000 μM, 24 h) “no change was confirmed in cell viability”.
